Measured values as given in the supplement of paper PMC10307832.

What was measured:
Experiment in all cases: relative viability (nuclei count vs DMSO), 5 days (fraction); higher = more cells survive
ALW-II-49-7 + Foretinib = compound: Cc1ccc(C(=O)Nc2cccc(C(F)(F)F)c2)cc1Nc1cncc(C(N)=O)c1 [ALW-II-49-7] + COc1cc2c(Oc3ccc(NC(=O)C4(C(=O)Nc5ccc(F)cc5)CC4)cc3F)ccnc2cc1OCCCN1CCOCC1 [Foretinib] (partner 0.25 µM)
Outline: (§1)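 Each reported value is a median over duplicate plates. It expresses relative viability: treated-well nuclei count divided by vehicle-well nuclei count. Lung cancer cell lines in 1536-well plates were dosed by pin tool a day after seeding, alone with one drug or with a fixed anchor-drug dose plus five library-drug doses (not always all listed) in √10 steps, and nuclei were counted after 5 days.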

Dasatinib + Pemetrexed = compound: Cc1nc(Nc2ncc(C(=O)Nc3c(C)cccc3Cl)s2)cc(N2CCN(CCO)CC2)n1 [Dasatinib] + Nc1nc2[nH]cc(CCc3ccc(C(=O)N[C@@H](CCC(=O)O)C(=O)O)cc3)c2c(=O)[nH]1 [Pemetrexed] (partner 0.2 µM)
Outline: as §1

Dasatinib + Linsitinib = compound: Cc1nc(Nc2ncc(C(=O)Nc3c(C)cccc3Cl)s2)cc(N2CCN(CCO)CC2)n1 [Dasatinib] + C[C@]1(O)C[C@@H](c2nc(-c3ccc4ccc(-c5ccccc5)nc4c3)c3c(N)nccn32)C1 [Linsitinib] (partner 1 µM)
Outline: as §1

Dasatinib + Foretinib = compound: Cc1nc(Nc2ncc(C(=O)Nc3c(C)cccc3Cl)s2)cc(N2CCN(CCO)CC2)n1 [Dasatinib] + COc1cc2c(Oc3ccc(NC(=O)C4(C(=O)Nc5ccc(F)cc5)CC4)cc3F)ccnc2cc1OCCCN1CCOCC1 [Foretinib] (partner 0.25 µM)
Outline: as §1

Cell Line | relative viability (ALW-II-49-7 + Foretinib; first compound 0.08 µM) | relative viability (ALW-II-49-7 + Foretinib; first compound 0.253 µM) | relative viability (ALW-II-49-7 + Foretinib; first compound 0.8 µM) | relative viability (ALW-II-49-7 + Foretinib; first compound 2.53 µM) | relative viability (ALW-II-49-7 + Foretinib; first compound 8 µM) | relative viability (Dasatinib + Pemetrexed; first compound 0.005 µM) | relative viability (Dasatinib + Pemetrexed; first compound 0.01581 µM) | relative viability (Dasatinib + Pemetrexed; first compound 0.05 µM) | relative viability (Dasatinib + Pemetrexed; first compound 0.1581 µM) | relative viability (Dasatinib + Pemetrexed; first compound 0.5 µM) | relative viability (Dasatinib + Linsitinib; first compound 0.005 µM) | relative viability (Dasatinib + Linsitinib; first compound 0.01581 µM) | relative viability (Dasatinib + Linsitinib; first compound 0.05 µM) | relative viability (Dasatinib + Linsitinib; first compound 0.1581 µM) | relative viability (Dasatinib + Linsitinib; first compound 0.5 µM) | relative viability (Dasatinib + Foretinib; first compound 0.005 µM) | relative viability (Dasatinib + Foretinib; first compound 0.01581 µM) | relative viability (Dasatinib + Foretinib; first compound 0.05 µM) | relative viability (Dasatinib + Foretinib; first compound 0.1581 µM) | relative viability (Dasatinib + Foretinib; first compound 0.5 µM)
NCI-H1975 | 0.918 | 1.05 | 1 | 0.909 | 0.891 | 0.284 | 0.286 | 0.297 | 0.239 | 0.201 | 0.86 | 0.713 | 0.851 | 0.286 | 0.243 | 0.918 | 0.817 | 0.722 | 0.439 | 0.225
NCI-H3122 | 1.06 | 0.978 | 0.96 | 1.03 | 0.931 | 0.208 | 0.205 | 0.194 | 0.198 | 0.186 | 1.03 | 1.05 | 1.03 | 0.762 | 0.815 | 0.932 | 0.871 | 0.955 | 0.942 | 0.567
COR-L 105 | 1.02 | 0.949 | 0.992 | 0.99 | 1.23 | 0.869 | 1.1 | 0.783 | 0.605 | 0.361 | 0.753 | 0.522 | 0.689 | 0.366 | 0.263 | 0.786 | 0.955 | 0.64 | 0.377 | 0.264
BEN | 0.829 | 0.756 | 0.768 | 0.752 | 0.692 | 0.596 | 0.572 | 0.511 | 0.478 | 0.448 | 0.776 | 0.476 | 0.531 | 0.38 | 0.322 | 0.682 | 0.513 | 0.35 | 0.366 | 0.291
NCI-H1915 | 1.17 | 1.07 | 1.06 | 0.864 | 0.816 | 0.489 | 0.455 | 0.449 | 0.337 | 0.159 | 1.11 | 1.03 | 0.921 | 0.488 | 0.288 | 1.05 | 0.804 | 0.957 | 0.431 | 0.298
NCI-H650 | 1.16 | 1.06 | 1.01 | 0.92 | 0.638 | 0.989 | 0.932 | 0.818 | 0.66 | 0.418 | 0.847 | 0.941 | 0.892 | 0.416 | 0.396 | 1.02 | 0.875 | 1.01 | 0.759 | 0.475
NCI-H2009 | 1.18 | 1.31 | 1.17 | 0.895 | 1.11 | 1.17 | 1.09 | 1.31 | 0.946 | 0.243 | 1.21 | 1.02 | 1.23 | 0.821 | 0.193 | 1.15 | 0.984 | 0.925 | 0.882 | 0.216
COR-L23 | 1.1 | 1.09 | 0.903 | 0.913 | 0.945 | 0.211 | 0.196 | 0.19 | 0.19 | 0.18 | 0.867 | 0.665 | 0.613 | 0.329 | 0.242 | 0.915 | 0.904 | 0.829 | 0.535 | 0.549
